Results on 29 compounds are retold here after patent publication US20240166652A1, “MODULATORS OF THE INTEGRATED STRESS PATHWAY” (Calico Life Sciences LLC, priority 2017, published 2024).

Structures are written as SMILES.

Broadly, the EC50 is the concentration giving half of the maximal effect.

For this experiment, the system named is ATF4 luciferase reporter in HEK293T cells. Nature of the experiment: ATF4-Luc assay (ATF4 luciferase reporter, tunicamycin-treated HEK293T cells). Format: cell-based, human. As to conditions: Homo sapiens, HEK-293T; HEK293T cells carrying the ATF4 luciferase reporter, 1 μg/mL tunicamycin, 7 hours. For orientation: Reporter assays use an easily measured gene product as a stand-in for the process of interest.
As for `O=C(COc1ncc(C(F)(F)F)cn1)NC12CCC(NC(=O)COc3ccc(Cl)c(F)c3)(CC1)[C@@H](O)C2` [Compound 630, 2-(4-chloro-3-fluorophenoxy)-N-[(2S)-2-hydroxy-4-(2-{[5-(trifluoromethyl)pyrimidin-2-yl]oxy}acetamido)bicyclo[2.2.2]octan-1-yl]acetamide], the concentration giving a half-maximal response (EC50) was less than 10 nM. Regarding `COc1ncc(OCC(=O)NC23CCC(NC(=O)COc4ccc(F)cc4)(CC2)[C@@H](O)C3)cn1` [Compound 631, 2-(4-fluorophenoxy)-N-[(2S)-2-hydroxy-4-{2-[(2-methoxypyrimidin-5-yl)oxy]acetamido}bicyclo[2.2.2]octan-1-yl]acetamide], the EC50 was in the range of 50 to 250 nM. Then `COc1ncc(OCC(=O)NC23CCC(NC(=O)COc4ccc5c(c4)OC(F)(F)O5)(CC2)[C@@H](O)C3)cn1` [Compound 632, 2-[(2,2-difluoro-2H-1,3-benzodioxol-5-yl)oxy]-N-[(2S)-2-hydroxy-4-{2-[(2-methoxypyrimidin-5-yl)oxy]acetamido}bicyclo[2.2.2]octan-1-yl]acetamide], with 10 to 50 nM. Consider `COc1ncc(OCC(=O)NC23CCC(NC(=O)COc4ccc(C(F)(F)F)c(F)c4)(CC2)[C@@H](O)C3)cn1` [Compound 633, 2-[3-fluoro-4-(trifluoromethyl)phenoxy]-N-[(2S)-2-hydroxy-4-{2-[(2-methoxypyrimidin-5-yl)oxy]acetamido}bicyclo[2.2.2]octan-1-yl]acetamide], for which the EC50 was 10 to 50 nM. `COc1ncc(OCC(=O)NC23CCC(NC(=O)COc4ccc(F)c(F)c4)(CC2)[C@@H](O)C3)cn1` [Compound 634, 2-(3,4-difluorophenoxy)-N-[(2S)-2-hydroxy-4-{2-[(2-methoxypyrimidin-5-yl)oxy]acetamido}bicyclo[2.2.2]octan-1-yl]acetamide]: the EC50 was 50 to 250 nM. The result for `COc1ncc(OCC(=O)NC23CCC(NC(=O)COc4ccc(Cl)cc4)(CC2)[C@@H](O)C3)cn1` [Compound 635, 2-(4-chlorophenoxy)-N-[(2S)-2-hydroxy-4-{2-[(2-methoxypyrimidin-5-yl)oxy]acetamido}bicyclo[2.2.2]octan-1-yl]acetamide] reads 10 to 50 nM; that for `O=C(COc1cnc(OC2CCC2)nc1)NC12CCC(NC(=O)COc3ccc(Cl)c(F)c3)(CC1)[C@@H](O)C2` [Compound 636, 2-(4-chloro-3-fluorophenoxy)-N-[(2S)-4-(2-{[2-(cyclobutyloxy)pyrimidin-5-yl]oxy}acetamido)-2-hydroxybicyclo[2.2.2]octan-1-yl]acetamide], 250 to 500 nM.

For the compound `COc1ncc(OCC(=O)NC23CCC(NC(=O)COc4ccc(Cl)c(F)c4)(CC2)[C@@H](O)C3)cn1` [Compound 637, 2-(4-chloro-3-fluorophenoxy)-N-[(2S)-2-hydroxy-4-{2-[(2-methoxypyrimidin-5-yl)oxy]acetamido}bicyclo[2.2.2]octan-1-yl]acetamide], the EC50 was less than 10 nM. `O=C(COc1ccc(Cl)c(F)c1)NC12CCC(NC(=O)COc3ccon3)(CC1)[C@@H](O)C2` [Compound 639, 2-(4-chloro-3-fluorophenoxy)-N-[(3S)-3-hydroxy-4-{2-[(1,2-oxazol-3-yl)oxy]acetamido}bicyclo[2.2.2]octan-1-yl]acetamide]: the EC50 fell in the range of 50 to 250 nM. As to `O=C(COc1ccc(Cl)c(F)c1)NC12CCC(NC(=O)COc3ccc(Cl)cn3)(CC1)[C@@H](O)C2` [Compound 640, 2-(4-chloro-3-fluorophenoxy)-N-[(3S)-4-{2-[(5-chloropyridin-2-yl)oxy]acetamido}-3-hydroxybicyclo[2.2.2]octan-1-yl]acetamide], the EC50 was less than 10 nM. Turning to `CC(C)(CNC12CC(NC(=O)COc3ccc(Cl)c(F)c3)(C1)C2)Oc1ccc(Cl)cc1` [Compound 641, 2-(4-chloro-3-fluorophenoxy)-N-(3-{[2-(4-chlorophenoxy)-2-methylpropyl]amino}bicyclo[1.1.1]pentan-1-yl)acetamide], the EC50 was greater than 2000 nM.

In the case of `O=C(COc1cnc(C(=O)O)nc1)NC12CCC(NC(=O)COc3ccc(Cl)c(F)c3)(CC1)[C@@H](O)C2` [Compound 642, 5-[2-({(3S)-4-[2-(4-chloro-3-fluorophenoxy)acetamido]-3-hydroxybicyclo[2.2.2]octan-1-yl}amino)-2-oxoethoxy]pyrimidine-2-carboxylic Acid], the EC50 is greater than 2000 nM. In the case of `O=C(COc1ccc(Cl)c(F)c1)NC12CCC(NC(=O)COc3ccc(Cl)c(F)c3)(CC1)C(CCO)C2` (centres unmarked) [Compound 643, N,N′-[2-(2-hydroxyethyl)bicyclo[2.2.2]octane-1,4-diyl]bis[2-(4-chloro-3-fluorophenoxy)acetamide]], the EC50 was less than 10 nM. In the case of `O=C(COc1ccc(Cl)c(F)c1)NC12CCC(NC(=O)COc3ccc(Cl)c(F)c3)(CC1)C(O)(CO)C2` (centres unmarked) [Compound 644, N,N′-[2-hydroxy-2-(hydroxymethyl)bicyclo[2.2.2]octane-1,4-diyl]bis[2-(4-chloro-3-fluorophenoxy)acetamide]], the EC50 is less than 10 nM.

`O=C(COc1ccn2nccc2c1)NC12CCC(NC(=O)COc3ccc(Cl)c(F)c3)(CC1)[C@@H](O)C2` [Compound 645, 2-(4-chloro-3-fluorophenoxy)-N-[(2S)-2-hydroxy-4-{2-[(pyrazolo[1,5-a]pyridin-5-yl)oxy]acetamido}bicyclo[2.2.2]octan-1-yl]acetamide]: the EC50 is less than 10 nM. Then `O=C(Cn1cc(F)cnc1=O)NC12CCC(NC(=O)COc3ccc(Cl)c(F)c3)(CC1)[C@@H](O)C2` [Compound 646, 2-(4-chloro-3-fluorophenoxy)-N-{(2S)-4-[2-(5-fluoro-2-oxopyrimidin-1(2H)-yl)acetamido]-2-hydroxybicyclo[2.2.2]octan-1-yl}acetamide], with 500 to 2000 nM; and `O=C(COc1ccc(Cl)c(F)c1)NC12CCC(NCc3nc4cc(F)ccc4[nH]3)(CC1)C[C@@H]2O` [Compound 647, 2-(4-chloro-3-fluorophenoxy)-N-[(2S)-4-{[(5-fluoro-1H-benzimidazol-2-yl)methyl]amino}-2-hydroxybicyclo[2.2.2]octan-1-yl]acetamide], with 50 to 250 nM. Turning to `O=C(COc1ccc(Cl)c(F)c1)NC12CCC(NCc3nc4cc(F)c(F)cc4[nH]3)(CC1)C[C@@H]2O` [Compound 648, 2-(4-chloro-3-fluorophenoxy)-N-[(2S)-4-{[(5,6-difluoro-1H-benzimidazol-2-yl)methyl]amino}-2-hydroxybicyclo[2.2.2]octan-1-yl]acetamide], the EC50 was in the range of 10 to 50 nM.

Consider `O=C(COc1ccc(Cl)c(F)c1)NC12CCC(NC(=O)CCOc3ccc(Cl)c(F)c3)(CC1)[C@@H](O)C2` [Compound 650, 3-(4-chloro-3-fluorophenoxy)-N-{(2S)-4-[2-(4-chloro-3-fluorophenoxy)acetamido]-2-hydroxybicyclo[2.2.2]octan-1-yl}propanamide], for which the EC50 was less than 10 nM. With `COc1ccc(OCC(=O)NC23CCC(NC(=O)COc4ccc(Cl)c(F)c4)(CC2)[C@@H](O)C3)cn1` [Compound 651, 2-(4-chloro-3-fluorophenoxy)-N-[(2S)-2-hydroxy-4-{2-[(6-methoxypyridin-3-yl)oxy]acetamido}bicyclo[2.2.2]octan-1-yl]acetamide], the EC50 was less than 10 nM. As to `O=C(COc1ccc(Cl)c(F)c1)N[C@H]1C(=O)C[C@@]2(NC(=O)COc3ccc(Cl)c(F)c3)CC[C@@H]1C2` [Compound 652, N,N′-[(1R,4R,5R)-3-oxobicyclo[3.2.1]octane-1,4-diyl]bis[2-(4-chloro-3-fluorophenoxy)acetamide]], the EC50 is 10 to 50 nM. As for `O=C(COc1ccc(Cl)c(F)c1)NC12CCC(NC(=O)COc3ccc(Cl)c(F)c3)(CC1)C1(CO1)C2` (centres unmarked) [Compound 654, N,N′-(spiro[bicyclo[2.2.2]octane-2,2′-oxirane]-1,4-diyl)bis[2-(4-chloro-3-fluorophenoxy)acetamide]], the EC50 was less than 10 nM. The result for `COc1ncc(OCC(=O)NC23CCC(NC(=O)COc4ccc(Cl)c(F)c4)(CC2)C(=O)C3)cn1` [Compound 655, 2-(4-chloro-3-fluorophenoxy)-N-(4-{2-[(2-methoxypyrimidin-5-yl)oxy]acetamido}-2-oxobicyclo[2.2.2]octan-1-yl)acetamide] reads 10 to 50 nM; that for `CN(CC(=O)NC12CCC(NC(=O)COc3ccc(Cl)c(F)c3)(CC1)C[C@@H]2O)c1ccc(Cl)cc1` [Compound 656, 2-(4-chloro-3-fluorophenoxy)-N-[(3S)-4-{2-[(4-chlorophenyl)(methyl)amino]acetamido}-3-hydroxybicyclo[2.2.2]octan-1-yl]acetamide], 10 to 50 nM.

Turning to `O=C(COc1ccc(Cl)c(F)c1)NC12CCC(NC(=O)CNc3ccc(Cl)cc3)(CC1)[C@@H](O)C2` [Compound 657, 2-(4-chloroanilino)-N-{(2S)-4-[2-(4-chloro-3-fluorophenoxy)acetamido]-2-hydroxybicyclo[2.2.2]octan-1-yl}acetamide], the EC50 is 50 to 250 nM.

`Cn1cc(OCC(=O)NC23CCC(NC(=O)COc4ccc(Cl)c(F)c4)(CC2)C[C@@H]3O)cn1` [Compound 658, 2-(4-chloro-3-fluorophenoxy)-N-[(3S)-3-hydroxy-4-{2-[(1-methyl-1H-pyrazol-4-yl)oxy]acetamido}bicyclo[2.2.2]octan-1-yl]acetamide]: the EC50 is 50 to 250 nM. Regarding `O=C(COc1ccc(Cl)c(F)c1)NC12CCC(NC(=O)COc3cccc(F)c3)(CC1)[C@@H](O)C2` [Compound 659, 2-(4-chloro-3-fluorophenoxy)-N-{(3S)-4-[2-(3-fluorophenoxy)acetamido]-3-hydroxybicyclo[2.2.2]octan-1-yl}acetamide], the EC50 was less than 10 nM. As for `O=C(COc1ccc(Cl)c(F)c1)NC12CCC(NC(=O)COc3cccc(Cl)c3)(CC1)[C@@H](O)C2` [Compound 660, 2-(4-chloro-3-fluorophenoxy)-N-{(3S)-4-[2-(3-chlorophenoxy)acetamido]-3-hydroxybicyclo[2.2.2]octan-1-yl}acetamide], the EC50 is less than 10 nM. `Cn1cc(OCC(=O)NC23CCC(NC(=O)COc4ccccn4)(CC2)C[C@@H]3O)cn1` [Compound 661, N-[(2S)-2-hydroxy-4-{2-[(pyridin-2-yl)oxy]acetamido}bicyclo[2.2.2]octan-1-yl]-2-[(1-methyl-1H-pyrazol-4-yl)oxy]acetamide]: the EC50 was greater than 2000 nM.
